# Data as given in publication PMC11079024, “Identification of a family of species-selective complex I inhibitors as potential anthelmintics” (Nature Communications, 2024).
# pIC50: −log10 of the molar value. Where “and” joins values, the source holds several entries; their conditions need not be identical. Equal values may be shown once. Read-outs that look alike come from different tables or passages of the source.
# What was measured:
# [1] = target: B. taurus (heart) complex I (Bos taurus, UniProt P03887+P17694+P42026); assay: biochemical; format: biochemical
# B. taurus (heart) complex I, sequence (P03887 whole entry): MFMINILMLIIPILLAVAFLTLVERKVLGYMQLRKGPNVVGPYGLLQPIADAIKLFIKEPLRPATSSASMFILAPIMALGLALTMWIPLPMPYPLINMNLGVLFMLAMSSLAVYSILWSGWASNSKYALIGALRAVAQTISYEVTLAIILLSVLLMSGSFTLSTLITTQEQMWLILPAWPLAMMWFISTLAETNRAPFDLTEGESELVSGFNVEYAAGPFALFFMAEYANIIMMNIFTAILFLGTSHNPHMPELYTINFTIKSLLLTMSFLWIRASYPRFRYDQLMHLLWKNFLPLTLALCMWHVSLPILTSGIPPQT
# B. taurus (heart) complex I, sequence (P17694 34-463): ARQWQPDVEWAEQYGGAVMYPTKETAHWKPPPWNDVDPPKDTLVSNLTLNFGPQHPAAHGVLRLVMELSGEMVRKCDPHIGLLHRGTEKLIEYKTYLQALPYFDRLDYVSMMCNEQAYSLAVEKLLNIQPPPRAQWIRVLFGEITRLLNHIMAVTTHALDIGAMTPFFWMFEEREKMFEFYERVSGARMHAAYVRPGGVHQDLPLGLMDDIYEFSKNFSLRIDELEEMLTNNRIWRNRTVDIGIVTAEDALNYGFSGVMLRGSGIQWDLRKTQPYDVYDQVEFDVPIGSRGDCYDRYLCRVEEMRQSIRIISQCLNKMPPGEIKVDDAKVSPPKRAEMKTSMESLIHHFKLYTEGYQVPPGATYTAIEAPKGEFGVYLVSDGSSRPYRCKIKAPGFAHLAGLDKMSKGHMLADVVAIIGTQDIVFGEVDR
# B. taurus (heart) complex I, sequence (P42026 38-216): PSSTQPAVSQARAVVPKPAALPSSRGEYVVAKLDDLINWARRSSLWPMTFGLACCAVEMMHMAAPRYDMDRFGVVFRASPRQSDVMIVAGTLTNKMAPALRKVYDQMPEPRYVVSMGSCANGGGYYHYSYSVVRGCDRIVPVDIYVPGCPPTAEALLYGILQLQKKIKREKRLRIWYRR
# How it was run: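 Complex I activity followed as DCIP reduction (600 nm, 30 s reads, 15 min) with 80 μM NADH and 60 μM decylubiquinone in 25 mM KPi pH 7.5 containing 2 μM antimycin A and 2 mM KCN. Freeze-thawed mouse or bovine heart mitochondria at 0.2 mg/mL; initial-rate percent of solvent control, single-point 100 μM or dose-response.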
# [2] = target: C. elegans (N2) complex I (NADH:ubiquinone oxidoreductase) (Caenorhabditis elegans, UniProt P24887+Q93873+Q94360); assay: biochemical; format: biochemical; settings: wild-type C. elegans mitochondria, read-out: percent (%) in vitro complex I activity relative to solvent control
# C. elegans (N2) complex I (NADH:ubiquinone oxidoreductase), sequence (Q94360 17-199): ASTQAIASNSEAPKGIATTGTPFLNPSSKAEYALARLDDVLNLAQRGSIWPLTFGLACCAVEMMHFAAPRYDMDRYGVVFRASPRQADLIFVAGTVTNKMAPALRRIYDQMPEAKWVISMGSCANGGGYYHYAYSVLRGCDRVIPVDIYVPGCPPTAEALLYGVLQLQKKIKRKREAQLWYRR
# C. elegans (N2) complex I (NADH:ubiquinone oxidoreductase), sequence (P24887 whole entry): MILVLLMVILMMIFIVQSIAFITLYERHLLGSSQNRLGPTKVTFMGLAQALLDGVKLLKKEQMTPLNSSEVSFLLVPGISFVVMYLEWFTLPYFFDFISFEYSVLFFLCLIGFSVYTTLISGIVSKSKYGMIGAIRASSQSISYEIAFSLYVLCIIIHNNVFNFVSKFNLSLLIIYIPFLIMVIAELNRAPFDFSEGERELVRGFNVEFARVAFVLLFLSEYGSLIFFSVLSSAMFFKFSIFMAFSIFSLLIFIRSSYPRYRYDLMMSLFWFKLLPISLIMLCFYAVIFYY
# C. elegans (N2) complex I (NADH:ubiquinone oxidoreductase), sequence (Q93873 31-482): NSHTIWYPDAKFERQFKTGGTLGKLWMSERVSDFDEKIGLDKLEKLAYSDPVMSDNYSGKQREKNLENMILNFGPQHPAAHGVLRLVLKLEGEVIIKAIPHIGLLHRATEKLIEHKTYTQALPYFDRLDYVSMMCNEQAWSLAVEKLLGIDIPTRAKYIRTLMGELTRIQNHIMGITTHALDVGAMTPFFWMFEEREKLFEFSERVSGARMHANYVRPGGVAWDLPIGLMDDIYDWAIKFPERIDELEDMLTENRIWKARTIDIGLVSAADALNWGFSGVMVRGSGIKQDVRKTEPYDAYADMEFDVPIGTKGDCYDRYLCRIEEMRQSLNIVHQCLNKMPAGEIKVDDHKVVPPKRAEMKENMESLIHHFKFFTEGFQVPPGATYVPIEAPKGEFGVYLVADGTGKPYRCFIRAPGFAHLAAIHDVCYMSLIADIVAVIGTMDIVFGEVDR
# How it was run: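 Compounds were tested against freeze-thawed isolated mitochondria (0.2 mg/mL protein). NADH:decylubiquinone activity was monitored via DCIP absorbance at 600 nm, and the initial linear slope was normalised to solvent controls.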
smiles,measurement,setting,value
COc1cc2c(cc1OC)C(C(C)c1ccc(CC(C)C)cc1)=NCC2 (centres unmarked) [NPD10504],activity at 0.0001 µM,"[1]; B. taurus, dose 0.0001 µM, Mean of replicates, read-out: Complex I activity, dose-response data",107%
same,"Complex I activity, dose-response data","[1]; B. taurus, dose 0.0001 µM, individual replicates (Rep)",117.793 and 105.069 and 91.702 and 112.227
same,activity at 0.0005 µM,"[1]; B. taurus, dose 0.0005 µM, Mean of replicates, read-out: Complex I activity, dose-response data",106%
same,"Complex I activity, dose-response data","[1]; B. taurus, dose 0.0005 µM, individual replicates (Rep)",109.504 and 97.187 and 111.197
same,activity at 0.0005 µM,"[1]; B. taurus, dose 0.0005 µM, individual replicates (Rep), read-out: Complex I activity, dose-response data",106%
same,activity at 0.001 µM,"[1]; B. taurus, dose 0.001 µM, Mean of replicates, read-out: Complex I activity, dose-response data",99.9%
same,"Complex I activity, dose-response data","[1]; B. taurus, dose 0.001 µM, individual replicates (Rep)",98.069 and 105.385 and 87.764 and 108.494
same,activity at 0.0025 µM,"[1]; B. taurus, dose 0.0025 µM, Mean of replicates, read-out: Complex I activity, dose-response data",103%
same,"Complex I activity, dose-response data","[1]; B. taurus, dose 0.0025 µM, individual replicates (Rep)",100.000 and 97.046 and 110.425
same,activity at 0.0025 µM,"[1]; B. taurus, dose 0.0025 µM, individual replicates (Rep), read-out: Complex I activity, dose-response data",106%
same,activity at 0.005 µM,"[1]; B. taurus, dose 0.005 µM, Mean of replicates, read-out: Complex I activity, dose-response data",95.2%
same,"Complex I activity, dose-response data","[1]; B. taurus, dose 0.005 µM, individual replicates (Rep)",92.608 and 94.796 and 95.624
same,activity at 0.005 µM,"[1]; B. taurus, dose 0.005 µM, individual replicates (Rep), read-out: Complex I activity, dose-response data",97.7%
same,activity at 0.013 µM,"[1]; B. taurus, dose 0.013 µM, Mean of replicates, read-out: Complex I activity, dose-response data",101%
same,"Complex I activity, dose-response data","[1]; B. taurus, dose 0.013 µM, individual replicates (Rep)",117.931 and 88.068 and 92.546 and 105.663
same,activity at 0.025 µM,"[1]; B. taurus, dose 0.025 µM, Mean of replicates, read-out: Complex I activity, dose-response data",101%
same,"Complex I activity, dose-response data","[1]; B. taurus, dose 0.025 µM, individual replicates (Rep)",94.298 and 94.233 and 109.524
same,activity at 0.025 µM,"[1]; B. taurus, dose 0.025 µM, individual replicates (Rep), read-out: Complex I activity, dose-response data",107%
same,activity at 0.063 µM,"[1]; B. taurus, dose 0.063 µM, Mean of replicates, read-out: Complex I activity, dose-response data",90.7%
same,"Complex I activity, dose-response data","[1]; B. taurus, dose 0.063 µM, individual replicates (Rep)",92.397 and 91.561 and 90.734
same,activity at 0.063 µM,"[1]; B. taurus, dose 0.063 µM, individual replicates (Rep), read-out: Complex I activity, dose-response data",88%
same,activity at 0.125 µM,"[1]; B. taurus, dose 0.125 µM, Mean of replicates, read-out: Complex I activity, dose-response data",83.6%
same,"Complex I activity, dose-response data","[1]; B. taurus, dose 0.125 µM, individual replicates (Rep)",80.676 and 85.091 and 80.824
same,activity at 0.125 µM,"[1]; B. taurus, dose 0.125 µM, individual replicates (Rep), read-out: Complex I activity, dose-response data",87.9%
same,activity at 0.313 µM,"[1]; B. taurus, dose 0.313 µM, Mean of replicates, read-out: Complex I activity, dose-response data",98%
same,"Complex I activity, dose-response data","[1]; B. taurus, dose 0.313 µM, individual replicates (Rep)",97.994 and 101.828 and 86.358
same,activity at 0.313 µM,"[1]; B. taurus, dose 0.313 µM, individual replicates (Rep), read-out: Complex I activity, dose-response data",106%
same,activity at 0.625 µM,"[1]; B. taurus, dose 0.625 µM, Mean of replicates, read-out: Complex I activity, dose-response data",101%
same,"Complex I activity, dose-response data","[1]; B. taurus, dose 0.625 µM, individual replicates (Rep)",121.834 and 83.881 and 99.417 and 98.267
same,activity at 1.5 µM,"[1]; B. taurus, dose 1.5 µM, Mean of replicates, read-out: Complex I activity, dose-response data",96.4%
same,"Complex I activity, dose-response data","[1]; B. taurus, dose 1.5 µM, individual replicates (Rep)",115.721 and 89.117 and 89.942 and 90.667
same,activity at 3 µM,"[1]; B. taurus, dose 3 µM, Mean of replicates, read-out: Complex I activity, dose-response data",85.9%
same,"Complex I activity, dose-response data","[1]; B. taurus, dose 3 µM, individual replicates (Rep)",100.146 and 69.610 and 88.192 and 85.467
same,activity at 15 µM,"[1]; B. taurus, dose 15 µM, Mean of replicates, read-out: Complex I activity, dose-response data",36.5%
same,"Complex I activity, dose-response data","[1]; B. taurus, dose 15 µM, individual replicates (Rep)",38.809 and 32.507 and 35.200
same,activity at 15 µM,"[1]; B. taurus, dose 15 µM, individual replicates (Rep), read-out: Complex I activity, dose-response data",39.3%
same,activity at 37.5 µM,"[1]; B. taurus, dose 37.5 µM, Mean of replicates, read-out: Complex I activity, dose-response data",5.69%
same,"Complex I activity, dose-response data","[1]; B. taurus, dose 37.5 µM, individual replicates (Rep)",3.348 and 10.986 and 0.292 and 8.133
same,activity at 75 µM,"[1]; B. taurus, dose 75 µM, Mean of replicates, read-out: Complex I activity, dose-response data",3.63%
same,"Complex I activity, dose-response data","[1]; B. taurus, dose 75 µM, individual replicates (Rep)",0.000 and 11.602 and 2.933
same,pIC50,"[1]; heart mitochondria, read-out: B. taurus Complex I IC50",4.95
same,remaining activity at 0.125 µM,[2]; mean of replicates,92.7%
same,remaining activity at 0.125 µM,[2]; single replicate,88.8%
same,remaining activity at 0.313 µM,[2]; mean of replicates,91.5%
same,remaining activity at 0.313 µM,[2]; single replicate,88.6%
same,remaining activity at 0.625 µM,[2]; mean of replicates,100%
same,remaining activity at 0.625 µM,[2]; single replicate,100%
same,remaining activity at 1.5 µM,[2]; mean of replicates,78.6%
same,remaining activity at 1.5 µM,[2]; single replicate,76.6%
same,remaining activity at 3 µM,"[2]; 3 µM, mean of replicates",58.9%
